The subject of assay [1] is T-cell. The assay can be described thus: CD25 cell surface staining on T-cells co-stimulated with anti-CD3 and anti-CD28 antibody (Biological Example 2). As to conditions: Homo sapiens, T-cell, fold change over baseline, primary human total T-cells, read-out: CD25 staining Anti-CD3/Anti-CD28 stimulation; for fold induction at 0.3 µM: 0.3 μM Cbl-b inhibitor; for fold induction at 1 µM: 1 μM Cbl-b inhibitor; for fold induction at 4 µM: 4 μM Cbl-b inhibitor. Type of assay: cell-based, human. In outline: (§1)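 Values are fold-change over baseline: readings (IL-2 release, CD25 staining) from inhibitor-treated T-cells divided against untreated cells […]. No detailed procedure stated.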

The next assay deals with Cbl-b (Homo sapiens, UniProt Q13191). The assay can be described thus: Cbl-b inhibition assay (Cbl-b activity assay, FRET, Biological Example 1; 100 mM NaCl, 60 nM Src kinase). The format is biochemical. The settings on record: upper bound stated in text lists; read-out: IC50 values in the Cbl-b inhibition assay of Biological Example 1. The method, boiled down:
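Binding-based Cbl-b activity assay. Src-phosphorylated, N-terminally biotin-Avi-tagged Cbl-b recruits labelled UbcH5B-Ub, and proximity to streptavidin-terbium yields FRET.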

Assay [2] relates to T-cell. The assay can be described thus: IL-2 secretion from T-cells co-stimulated with anti-CD3 and anti-CD28 antibody (Biological Example 2). As to conditions: Homo sapiens, T-cell, fold change over baseline, primary human total T-cells, read-out: IL-2 secretion Anti-CD3/Anti-CD28 stimulation; for fold induction at 0.3 µM: 0.3 μM Cbl-b inhibitor; for fold induction at 1 µM: 1 μM Cbl-b inhibitor; for fold induction at 4 µM: 4 μM Cbl-b inhibitor. Type of assay: cell-based, human. In outline:
as §1

In assay [3] the test system is T-cell. The assay can be described thus: CD25 cell surface staining on T-cells stimulated with anti-CD3 antibody alone (Biological Example 2). The format is cell-based, human. As to conditions: T-cell, fold change over baseline, primary human total T-cells, read-out: CD25 staining Anti-CD3 stimulation; for fold induction at 1 µM: 1 μM Cbl-b inhibitor; for fold induction at 8 µM: 8 μM Cbl-b inhibitor.

The subject of assay [4] is T-cell. The assay can be described thus: IL-2 secretion from T-cells stimulated with anti-CD3 antibody alone (Biological Example 2). The format is cell-based, human. As to conditions: T-cell, fold change over baseline, primary human total T-cells, read-out: IL-2 secretion Anti-CD3 stimulation; for fold induction at 1 µM: 1 μM Cbl-b inhibitor; for fold induction at 8 µM: 8 μM Cbl-b inhibitor.

Structures can show the parent of a compound that is named as a salt. Some results are limits rather than exact numbers.

As a reminder, the IC50 is the concentration at which inhibition is half-maximal.

Cbl-b, sequence (Q13191 36-427): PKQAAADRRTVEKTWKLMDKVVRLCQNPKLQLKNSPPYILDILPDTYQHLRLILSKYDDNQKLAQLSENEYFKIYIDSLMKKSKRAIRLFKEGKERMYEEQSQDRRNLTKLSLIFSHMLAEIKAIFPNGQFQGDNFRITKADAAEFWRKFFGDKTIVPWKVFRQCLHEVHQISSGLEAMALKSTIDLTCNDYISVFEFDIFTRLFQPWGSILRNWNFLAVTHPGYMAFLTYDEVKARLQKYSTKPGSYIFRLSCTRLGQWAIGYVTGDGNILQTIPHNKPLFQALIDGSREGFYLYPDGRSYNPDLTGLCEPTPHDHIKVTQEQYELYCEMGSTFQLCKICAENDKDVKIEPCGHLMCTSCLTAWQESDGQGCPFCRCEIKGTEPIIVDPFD

On to `C[C@H](Sc1nncn1C)c1cccc(NC(=O)c2cc3cc(OCC(=O)NCCN)ccc3cn2)c1` [Compound 311, 6-[2-(2-aminoethylamino)-2-oxo-ethoxy]-N-[3-[(1S)-1-[(4-methyl-1,2,4-triazol-3-yl)sulfanyl]ethyl]phenyl]isoquinoline-3-carboxamide hydrochloride], for which, in the assay on T-cell [1], the fold induction at 0.3 µM was under 1, the fold induction at 1 µM is under 1 and the fold induction at 4 µM fell in the range of 1.01 to 1.3. In addition, on Cbl-b, the IC50 is at most 300 nM. In the assay with T-cell [2], the fold induction at 0.3 µM is under 1, the fold induction at 1 µM was under 1 and the fold induction at 4 µM lay within 1.01 to 2.5. Besides, in the assay with T-cell [3], the fold induction at 1 µM lay within 0.601 to 0.8 and the fold induction at 8 µM was in the range of 0.601 to 0.8. In the assay with T-cell [4], the fold induction at 1 µM is under 0.05 and the fold induction at 8 µM was under 0.05.

On to `Cc1cnnn1C[C@@H](C)c1cccc(NC(=O)c2cccc(C(F)(F)F)n2)c1` [Compound 312a, (S)-N-(3-(1-(5-methyl-1H-1,2,3-triazol-1-yl)propan-2-yl)phenyl)-6-(trifluoromethyl)picolinamide], for which, in the assay with T-cell [1], the fold induction at 0.3 µM was under 1, the fold induction at 1 µM was 1.01 to 1.3 and the fold induction at 4 µM lay within 1.01 to 1.3. Besides, the IC50 at Cbl-b is at most 300 nM. In the assay with T-cell [2], the fold induction at 0.3 µM lay in the range of 1.01 to 2.5, the fold induction at 1 µM is 1.01 to 2.5 and the fold induction at 4 µM fell in the range of 2.51 to 5. For the same compound, in the assay with T-cell [3], the fold induction at 1 µM was in the range of 0.601 to 0.8 and the fold induction at 8 µM fell in the range of 0.801 to 1. In the assay with T-cell [4], the fold induction at 1 µM is 0.051 to 0.1 and the fold induction at 8 µM was 0.151 to 0.2.

On to `C[C@H](Cc1nncn1C)c1cccc(NC(=O)c2n[nH]c3c2CCC3)c1` [Compound 313, (R)-N-(3-(1-(4-Methyl-4H-1,2,4-triazol-3-yl)propan-2-yl)phenyl)-1,4,5,6-tetrahydrocyclopenta[c]pyrazole-3-carboxamide], for which, in the assay with T-cell [1], the fold induction at 0.3 µM fell in the range of 1.01 to 1.3, the fold induction at 1 µM fell in the range of 1.01 to 1.3 and the fold induction at 4 µM lay in the range of 1.01 to 1.3. The IC50 on Cbl-b is at most 300 nM. Moreover, in the assay with T-cell [2], the fold induction at 0.3 µM is 1.01 to 2.5, the fold induction at 1 µM was in the range of 1.01 to 2.5 and the fold induction at 4 µM is 2.51 to 5. In the assay on T-cell [3], the fold induction at 1 µM is 0.601 to 0.8 and the fold induction at 8 µM lay in the range of 0.801 to 1. Also, in the assay on T-cell [4], the fold induction at 1 µM is 0.101 to 0.15 and the fold induction at 8 µM was in the range of 0.151 to 0.2.

With `C[C@H](Cc1nncn1C)c1cccc(NC(=O)c2nc3c(C4CC4)cccc3[nH]2)c1` [Compound 319, 4-cyclopropyl-N-[3-[(1R)-1-methyl-2-(4-methyl-1,2,4-triazol-3-yl)ethyl]phenyl]-1H-benzimidazole-2-carboxamide], in the assay with T-cell [1], the fold induction at 0.3 µM was in the range of 1.01 to 1.3, the fold induction at 1 µM was 1.01 to 1.3 and the fold induction at 4 µM was 1.01 to 1.3. Further, the IC50 at Cbl-b is at most 300 nM. In the assay on T-cell [2], the fold induction at 0.3 µM was 1.01 to 2.5, the fold induction at 1 µM lay in the range of 1.01 to 2.5 and the fold induction at 4 µM was 2.51 to 5. Also, in the assay with T-cell [3], the fold induction at 1 µM lay in the range of 0.601 to 0.8 and the fold induction at 8 µM lay in the range of 0.801 to 1. In addition, in the assay on T-cell [4], the fold induction at 1 µM fell in the range of 0.051 to 0.1 and the fold induction at 8 µM was over 0.201.

With `C[C@H](Cc1nncn1C)c1cccc(NC(=O)c2cc(C(C)(C)O)cc(C(F)(F)F)n2)c1` [Compound 320, 4-(2-hydroxypropan-2-yl)-N-[3-[(2R)-1-(4-methyl-4H-1,2,4-triazol-3-yl)propan-2-yl]phenyl]-6-(trifluoromethyl)pyridine-2-carboxamide], in the assay on T-cell [1], the fold induction at 0.3 µM was in the range of 1.01 to 1.3, the fold induction at 1 µM lay within 1.01 to 1.3 and the fold induction at 4 µM lay in the range of 1.01 to 1.3. Also, the IC50 at Cbl-b was at most 300 nM. In addition, in the assay on T-cell [2], the fold induction at 0.3 µM is 1.01 to 2.5, the fold induction at 1 µM was 2.51 to 5 and the fold induction at 4 µM lay within 5 to 7.5. Also, in the assay with T-cell [3], the fold induction at 1 µM lay in the range of 0.801 to 1 and the fold induction at 8 µM is over 1. Also, in the assay on T-cell [4], the fold induction at 1 µM was in the range of 0.101 to 0.15 and the fold induction at 8 µM was over 0.201.

With `C[C@H](Cc1nncn1C)c1cccc(NC(=O)c2cccc(C(C)(C)C)n2)c1` [Compound 321, (R)-6-(Tert-butyl)-N-(3-(1-(4-methyl-4H-1,2,4-triazol-3-yl)propan-2-yl)phenyl)picolinamide], the fold induction at 0.3 µM fell in the range of 1.01 to 1.3 in the assay with T-cell [1] and 1.01 to 2.5 in the assay with T-cell [2]. For the same compound, the fold induction at 1 µM in the assay with T-cell [1] fell in the range of 1.01 to 1.3; with T-cell [2], 2.51 to 5; with T-cell [3], 0.801 to 1; in the assay with T-cell [4], 0.051 to 0.1. The fold induction at 4 µM in the assay with T-cell [1] fell in the range of 1.01 to 1.3; in the assay on T-cell [2], 2.51 to 5. The IC50 at Cbl-b is at most 100 nM. The fold induction at 8 µM in the assay with T-cell [3] was over 1; with T-cell [4] it was over 0.201.

Turning to `CC1CCc2c1n[nH]c2C(=O)Nc1cccc([C@H](C)Cc2nncn2C)c1` (stereo partly drawn) [Compound 323, 6-Methyl-N-(3-((R)-1-(4-methyl-4H-1,2,4-triazol-3-yl)propan-2-yl)phenyl)-2,4,5,6-tetrahydrocyclopenta[c]pyrazole-3-carboxamide], in the assay with T-cell [1], the fold induction at 0.3 µM is under 1, the fold induction at 1 µM is under 1 and the fold induction at 4 µM lay within 1.01 to 1.3. Further, the 50% inhibitory concentration (IC50) at Cbl-b was at most 300 nM. In addition, in the assay on T-cell [2], the fold induction at 0.3 µM was 1.01 to 2.5, the fold induction at 1 µM was in the range of 2.51 to 5 and the fold induction at 4 µM was in the range of 5 to 7.5. In the assay with T-cell [3], the fold induction at 1 µM lay within 0.601 to 0.8 and the fold induction at 8 µM is over 1. For the same compound, in the assay with T-cell [4], the fold induction at 1 µM lay within 0.101 to 0.15 and the fold induction at 8 µM was over 0.201.

`Cc1cc(C(=O)Nc2cccc([C@@H](C)Cc3nncn3C)c2)nc(C2CC2)n1` [Compound 325, (S)-2-Cyclopropyl-6-methyl-N-(3-(1-(4-methyl-4H-1,2,4-triazol-3-yl)propan-2-yl)phenyl)pyrimidine-4-carboxamide]: in the assay on T-cell [1], the fold induction at 0.3 µM is 1.01 to 1.3, the fold induction at 1 µM lay in the range of 1.01 to 1.3 and the fold induction at 4 µM lay within 1.01 to 1.3. In addition, the IC50 at Cbl-b was at most 300 nM. Further, in the assay with T-cell [2], the fold induction at 0.3 µM fell in the range of 1.01 to 2.5, the fold induction at 1 µM lay within 1.01 to 2.5 and the fold induction at 4 µM lay in the range of 2.51 to 5. Also, in the assay with T-cell [3], the fold induction at 1 µM was in the range of 0.801 to 1 and the fold induction at 8 µM is over 1. For the same compound, in the assay on T-cell [4], the fold induction at 1 µM lay within 0.051 to 0.1 and the fold induction at 8 µM was in the range of 0.101 to 0.15.

In the case of `Cc1cc(C(=O)Nc2cccc([C@H](C)Cc3nocc3C)c2)nc(C2CC2)n1` [Compound 330, (R)-2-cyclopropyl-6-methyl-N-(3-(1-(4-methylisoxazol-3-yl)propan-2-yl)phenyl)pyrimidine-4-carboxamide], in the assay on T-cell [1], the fold induction at 0.3 µM fell in the range of 1.01 to 1.3, the fold induction at 1 µM lay within 1.01 to 1.3 and the fold induction at 4 µM lay within 1.01 to 1.3. Also, at Cbl-b, the IC50 is at most 100 nM. In addition, in the assay on T-cell [2], the fold induction at 0.3 µM was 1.01 to 2.5, the fold induction at 1 µM is 2.51 to 5 and the fold induction at 4 µM was in the range of 5 to 7.5. In addition, in the assay with T-cell [3], the fold induction at 1 µM fell in the range of 0.801 to 1 and the fold induction at 8 µM is over 1. Further, in the assay on T-cell [4], the fold induction at 1 µM lay within 0.051 to 0.1 and the fold induction at 8 µM is over 0.201.

Regarding `Cn1cnnc1CC1(c2cccc(NC(=O)c3nc4c(C(F)(F)F)cccc4[nH]3)c2)COC1` [Compound 335, N-(3-{3-[(4-methyl-1,2,4-triazol-3-yl)methyl]oxetan-3-yl}phenyl)-4-(trifluoromethyl)-1H-1,3-benzodiazole-2-carboxamide], in the assay with T-cell [1], the fold induction at 0.3 µM fell in the range of 1.31 to 1.5, the fold induction at 1 µM fell in the range of 1.51 to 1.75 and the fold induction at 4 µM was 1.51 to 1.75. The IC50 at Cbl-b is at most 100 nM. For the same compound, in the assay on T-cell [2], the fold induction at 0.3 µM is 2.51 to 5, the fold induction at 1 µM lay within 5 to 7.5 and the fold induction at 4 µM was over 7.5. Moreover, in the assay with T-cell [3], the fold induction at 1 µM lay in the range of 0.801 to 1 and the fold induction at 8 µM is over 1. Moreover, in the assay on T-cell [4], the fold induction at 1 µM lay within 0.101 to 0.15 and the fold induction at 8 µM is over 0.201.

`Cc1cc(C(=O)Nc2cccc(C3(Cc4nncn4C)COC3)c2)nc(C2CC2)n1` [Compound 336, 2-cyclopropyl-6-methyl-N-(3-(3-((4-methyl-4H-1,2,4-triazol-3-yl)methyl)oxetan-3-yl)phenyl)pyrimidine-4-carboxamide]: in the assay on T-cell [1], the fold induction at 0.3 µM lay in the range of 1.31 to 1.5, the fold induction at 1 µM is over 1.76 and the fold induction at 4 µM fell in the range of 1.51 to 1.75. At Cbl-b, the IC50 was at most 100 nM. Also, in the assay with T-cell [2], the fold induction at 0.3 µM was in the range of 5 to 7.5, the fold induction at 1 µM is over 7.5 and the fold induction at 4 µM is over 7.5. For the same compound, in the assay on T-cell [3], the fold induction at 1 µM was over 1 and the fold induction at 8 µM was over 1. In the assay on T-cell [4], the fold induction at 1 µM is over 0.201 and the fold induction at 8 µM is over 0.201.

The values above are taken from patent US20220324835A1 (Nurix Therapeutics, Inc., priority 2018, published 2022).
